Values joined by “and” are separate entries in the source; they are usually repeats but may differ in a detail not shown here. Identical values can stand only once. “Also recorded” adds a separate entry of the source.
Columns and labels:
[1] = test system: citrated pooled rat plasma; assay: Activated partial thromboplastin time (aPTT) assay; settings: citrated pooled rat plasma; highest concentration tested; control 22 s
Source text: To complement these findings, we performed an activated partial thromboplastin time (aPTT) assay in citrated pooled rat plasma to assess the overall impact of the compounds on the intrinsic coagulation pathway. This global clotting assay measures the time required for fibrin formation and is sensitive to anticoagulant effects. Figure F,G compare the effects of UFH, heparan sulfate, Fondaparinux, and the synthetic glycomimetics when supplemented into citrated plasma. […] As expected, UFH produced a strong, concentration-dependent anticoagulant response, prolonging the mean clotting time to 271 s at the highest concentration tested, while heparan sulfate and Fondaparinux induced weaker but measurable effects (83 and 37 s, respectively). […] The results further confirm that selective sulfation patterns can decouple GF recognition from anticoagulant function, an essential prerequisite for their translational application in regenerative medicine. […] These interactions are in line with nonspecific electrostatic binding, a feature of highly sulfated oligosaccharides known to engage different proteins via charge-based, rather than specific, biologically targeted interactions. Thus, to avoid potential off-target effects associated with highly sulfated analogues, we selected the disaccharide D2 for subsequent biological experiments.

FGF-1 = FGF-1 (Homo sapiens, UniProt P05230); assay: Far-UV CD spectroscopy and CD thermal denaturation; settings: CD thermal denaturation 10–90 °C; protein with sugar, 1:3 molar ratio
Chain of FGF-1 (P05230 whole entry, species assumed): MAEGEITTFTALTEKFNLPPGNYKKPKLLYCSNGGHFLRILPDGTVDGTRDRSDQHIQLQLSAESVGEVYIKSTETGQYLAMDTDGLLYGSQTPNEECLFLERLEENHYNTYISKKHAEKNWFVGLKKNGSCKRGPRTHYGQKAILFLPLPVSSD
Source text: (§1) To select a lead compound, we complemented the affinity data with a series of studies evaluating the structural and functional implications of protein-HS glycomimetic interactions. We assessed the therapeutic safety profile of our HS glycomimetics. We also employed circular dichroism (CD) spectroscopy to assess secondary structural changes in protein conformation upon binding to native HS and HS glycomimetics. Since native HS alone produces only a minimal signal, it was ensured that its contribution would not interfere with protein-sugar complex spectra. Therefore, only the far-UV CD spectra of bare proteins and their sugar complexes were recorded. […] Upon incubation with sugars (1:3 molar ratio), significant spectral changes were observed, indicating sugar-induced alterations in secondary structure (Figure A).
(§2) We also evaluated the thermal stability of the proteins and their sugar complexes by CD-based thermal denaturation experiments. The spectra were recorded across a temperature range of 10–90 °C (Figure B). For all proteins except AT-III, the unfolding profiles were analyzed to determine the melting temperature (T m), representing the midpoint of the transition from the folded to the unfolded state, an indicator of structural integrity and resistance to thermal denaturation. The calculated values are compiled in Table .

FGF-2 [2] = molecular target: T1, FGF-2 (Homo sapiens, UniProt P09038); assay: Far-UV CD spectroscopy and CD thermal denaturation; settings: CD thermal denaturation 10–90 °C; protein with sugar, 1:3 molar ratio
T1 sequence (P09038 134-288 limits assumed, species assumed): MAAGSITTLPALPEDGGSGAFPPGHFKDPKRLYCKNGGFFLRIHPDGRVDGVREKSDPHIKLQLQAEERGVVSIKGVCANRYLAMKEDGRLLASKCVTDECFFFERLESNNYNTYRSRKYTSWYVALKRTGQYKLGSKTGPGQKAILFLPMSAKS
Source text: as §1, §2

FGF-2 [3] = molecular target: T1, FGF-2; assay: BLI competition assay with immobilized native HS for FGF-2 binding; settings: for competition with immobilized native HS for FGF-2 binding, signal intensity: FGF-2 50 nM premixed with varying concentrations; for IC50: FGF-2 50 nM, fixed association time t = 240 s, read-out: Apparent IC50(t), competition with immobilized native HS for FGF-2 binding
Source text: We next examined the functional relevance of the synthetic HS glycomimetics by testing their ability to compete with native HS for FGF-2 binding using competition assays. Although direct binding assays measure the intrinsic affinity of HS glycomimetics for FGF-2, they are limited in representing the complex, multimolecular environment of biological systems. In vivo, FGF-2 activity is tightly regulated by its interactions with GAGs, which are abundant on cell surfaces and in the ECM. These interactions stabilize FGF-2 and facilitate its dimerization with FGF receptors (FGFRs), a requirement for effective signal transduction. , Thus, therapeutic candidates targeting FGF-2 must be evaluated not only for direct binding but also for their ability to modulate or disrupt GAG-mediated interactions. Therefore, we performed competition assays in which native HS was immobilized on the sensor surface. Solutions containing a fixed concentration of FGF-2 (50 nM) were premixed with varying concentrations of HS glycomimetics, functioning as inhibitors in this context, (M1, D1, D2, D3, and T1) and also with the heparin hexasaccharide (H1) (GlcNS6S-GlcA-GlcNS3S6S-IdoA2S-GlcNS6S-GlcA), a well-studied HS glycomimetic in the literature, as a positive control (Figure B). […] The progressive decrease in signal intensity with increasing inhibitor concentration directly reflects competition with immobilized HS for FGF-2 binding.

hippocampal neurons = assay: Patch clamp recording of spontaneous synaptic activity in hippocampal neurons; assay type: cell-based, rat; settings: 24 h treatment, neurons at 8 days in vitro, voltage clamp −58 mV; mean ± SEM
Source text: In another set of experiments, we investigated the impact of D2+FGF-2, with respect to that of FGF-2 alone, on the formation of functionally active neuronal networks. To this aim, we used hippocampal neurons developed in vitro for 1 week, from which, through the single-cell patch clamp technique, we recorded in voltage clamp mode spontaneous synaptic activity. […] While neurons treated with FGF-2 alone presented sPSCs of fluctuating amplitude (in average 42 ± 5 pA) at a frequency of 1.23 ± 0.38 Hz, the coapplication of D2 with the growth factor induced a statistically significant enhancement of both these values (for D2+FGF-2, sPSCs frequency: 2.52 ± 0.47 Hz, and sPSCs amplitude: 75 ± 14 pA, p < 0.05 FGF-2 vs D2+FGF-2, Figure E–F).

[4] = test system: rat dissociated hippocampal neurons; assay: Neurite morphometry in dissociated hippocampal neurons; assay type: cell-based; settings: 24 h treatment, 1 day in vitro, D2 1 μM, FGF-2 40 ng/mL, mean ± SEM
Protocol: In the pursuit of this, we used rat dissociated hippocampal neurons as an in vitro model system. We assessed the impact of HS glycomimetics on neuronal morphology, using immunofluorescence imaging and quantitative morphometric analysis, and on synaptic functionality through electrophysiological monitoring of spontaneous neuronal activity.
During the first day of differentiation in vitro (Table S7.1 in SI), neurons were treated for 24 h with either control medium, glycomimetic D2 (1 μM), FGF-2 (40 ng/mL) alone, or a combination of FGF-2 and D2 (40 ng/mL and 1 μM, respectively). After treatments, cultures were fixed and immuno-labeled with antibodies against the neuronal marker β-Tubulin III to study cell morphology. […] Quantitative analysis further corroborated these observations (Figure B–C).

Factor IIa (thrombin) = assay: AT-III-mediated chromogenic substrate assay; assay type: biochemical; settings: absorbance at 405 nm
Source text: (§3) Active coagulation factors cleave chromogenic peptide substrates, therefore producing p-nitroaniline, a yellow-colored product with a detectable absorbance signal at λ = 405 nm. Inhibitors like heparin-AT-III complexes decrease enzyme activity and so lower absorbance readings.

Factor Xa = assay: AT-III-mediated chromogenic substrate assay; assay type: biochemical; settings: absorbance at 405 nm
Source text: as §3

AT-III = AT-III (Homo sapiens, UniProt P01008); assay: BLI binding assay, sugars immobilized, protein as analyte
Chain of AT-III (P01008 33-464): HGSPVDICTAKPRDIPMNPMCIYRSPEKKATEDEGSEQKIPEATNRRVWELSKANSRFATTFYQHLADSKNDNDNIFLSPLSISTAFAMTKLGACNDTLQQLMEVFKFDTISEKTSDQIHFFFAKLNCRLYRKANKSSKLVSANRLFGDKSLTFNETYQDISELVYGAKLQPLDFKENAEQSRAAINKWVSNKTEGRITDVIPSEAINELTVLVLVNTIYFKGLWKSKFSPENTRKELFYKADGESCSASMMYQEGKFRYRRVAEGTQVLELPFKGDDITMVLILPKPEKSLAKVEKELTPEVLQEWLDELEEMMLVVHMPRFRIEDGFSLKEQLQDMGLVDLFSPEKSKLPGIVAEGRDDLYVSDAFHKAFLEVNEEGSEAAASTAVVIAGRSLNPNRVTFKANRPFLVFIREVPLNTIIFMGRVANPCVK
Protocol: We evaluated the binding affinity of native HS and synthetic HS glycomimetics (M1, D1, D2, D3, and T1) to these proteins using biolayer interferometry (BLI). The terminal amino groups of the sugars were immobilized onto the sensor surface using standard amine coupling chemistry, and binding assays were performed by introducing the proteins as analytes at varying concentrations (Figure A). The equilibrium dissociation constants (K D) were determined using the steady-state affinity curve fitting.

Compound	aPTT mean clotting time [1] [s]	FGF-1 Sample Tm (FGF-1)	FGF-2 Sample Tm (FGF-2 [2])	competition with immobilized native HS for FGF-2 binding, signal intensity (FGF-2 [3])	IC50 (FGF-2 [3])	other results
CC(=O)N[C@H]1[C@@H](OCCN)O[C@H](COS(=O)(=O)O)[C@@H](O)[C@@H]1O [M1, GlcNAc6S]	22	43.3 °C and 43.3 ± 0.4 °C	50.7 °C and 50.7 ± 0.2 °C	much weaker effect; also recorded: minimal inhibition		
GlcNS6S-GlcA-GlcNS3S6S-IdoA2S-GlcNS6S-GlcA [H1, reference compound]					2610 nM	
CC(=O)N[C@H]1[C@@H](OCCN)O[C@H](CO)[C@@H](O[C@@H]2O[C@@H](C(=O)O)[C@@H](OS(=O)(=O)O)[C@H](O)[C@H]2OS(=O)(=O)O)[C@@H]1O [D1, IdoA2S4S-GlcNAc]	22.5	44.5 °C and 44.5 ± 0.4 °C	51.6 °C and 51.6 ± 1.9 °C	much weaker effect; also recorded: minimal inhibition		
FGF-2: fibroblast growth factor-2, basic FGF, applied alone at 40 ng/mL						sPSCs amplitude (hippocampal neurons): 42 ± 5 pA; sPSCs frequency (hippocampal neurons): 1.23 ± 0.38 Hz; number of neurites emerging from the cell body ([4]; control 3.6 ± 0.22): 5.4 ± 0.28 neurites per neuron; length of the longest neurite ([4]; control 38 ± 2): 45 ± 4 μm
NC[C@H]1O[C@H](O[C@H]2[C@H](OS(=O)(=O)O)[C@@H](OS(=O)(=O)O)[C@@H](O[C@H]3[C@H](OS(=O)(=O)O)[C@@H](OS(=O)(=O)O)[C@@H](O[C@H]4[C@H](OS(=O)(=O)O)[C@@H](OS(=O)(=O)O)[C@@H]5OC[C@H]4O5)O[C@@H]3COS(=O)(=O)O)O[C@@H]2COS(=O)(=O)O)[C@H](OS(=O)(=O)O)[C@@H](OS(=O)(=O)O)[C@@H]1OS(=O)(=O)O [T1, Glc2S3S-Glc2S3S6S-Glc2S3S6S-Glc2S3S]	28.5	46.3 °C and 46.3 ± 0.5 °C	59.3 °C and 59.3 ± 2.2 °C	dose-dependent reduction in signal intensity	900 nM and 910 nM	AT-III-mediated Factor IIa activity (Factor IIa (thrombin)): slight interactions; AT-III-mediated Factor Xa activity (Factor Xa): slight interactions; binding to AT-III (AT-III): bound to AT-III
NCCCCCOC1OC(COS(=O)(=O)O)C(OC2OC(C(=O)NNS(=O)(=O)O)C(OS(=O)(=O)O)C(O)C2OS(=O)(=O)O)C(O)C1NS(=O)(=O)O (stereo not shown) [D3, GlcANS6S-GlcNS6S]	25.3	45.3 °C and 45.3 ± 0.3 °C	54.2 °C and 54.2 ± 1.2 °C	dose-dependent reduction in signal intensity	84500 nM	
CO[C@H]1O[C@H](COS(=O)(=O)O)[C@@H](O[C@@H]2O[C@@H](C(=O)O)[C@@H](O[C@H]3O[C@H](COS(=O)(=O)O)[C@@H](O[C@@H]4O[C@H](C(=O)O)[C@@H](O[C@H]5O[C@H](COS(=O)(=O)O)[C@@H](O)[C@H](O)[C@H]5NS(=O)(=O)O)[C@H](O)[C@H]4O)[C@H](OS(=O)(=O)O)[C@H]3NS(=O)(=O)O)[C@H](O)[C@H]2OS(=O)(=O)O)[C@H](O)[C@H]1NS(=O)(=O)O [Fondaparinux, reference compound]	37					AT-III-mediated Factor Xa activity (Factor Xa): selectively inhibited

— paper PMC12715788, “Unraveling the Potential of Small Molecule Heparin Glycomimetics in Neuroregenerative Therapeutics” (Journal of the American Chemical Society, 2025)
